Like-named read-outs stand apart in the source and are kept apart here.
Molecular target: T1, human full-length MKNK1 (Homo sapiens, UniProt Q9BUB5, T385D)
T1 construct: GST (N); purchased Carna Biosciences 02-145; host or cells: insect cells (baculovirus expression system)
Test: MKNK1 kinase high ATP assay (TR-FRET)
Type: biochemical
Details: for Activity-Ratio MKNK1: Table 2, ratio of the IC50-value of an R-enantiomer and its corresponding S-enantiomer
Method in brief: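 Full-length human MKNK1 (T385D) preincubated 15 min at 22 °C with compound in HEPES pH 7.5/MgCl2/DTT buffer; reaction with 2 mM ATP (final) and 0.06 μM biotinylated peptide (final), 30 min at 22 °C.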

[1] = Table 1, MKNK1 kinase high ATP assay, 2 mM ATP, read-out: MKNK1 IC50

T1 sequence (Q9BUB5 1-424 isoform Q9BUB5-2 T344D): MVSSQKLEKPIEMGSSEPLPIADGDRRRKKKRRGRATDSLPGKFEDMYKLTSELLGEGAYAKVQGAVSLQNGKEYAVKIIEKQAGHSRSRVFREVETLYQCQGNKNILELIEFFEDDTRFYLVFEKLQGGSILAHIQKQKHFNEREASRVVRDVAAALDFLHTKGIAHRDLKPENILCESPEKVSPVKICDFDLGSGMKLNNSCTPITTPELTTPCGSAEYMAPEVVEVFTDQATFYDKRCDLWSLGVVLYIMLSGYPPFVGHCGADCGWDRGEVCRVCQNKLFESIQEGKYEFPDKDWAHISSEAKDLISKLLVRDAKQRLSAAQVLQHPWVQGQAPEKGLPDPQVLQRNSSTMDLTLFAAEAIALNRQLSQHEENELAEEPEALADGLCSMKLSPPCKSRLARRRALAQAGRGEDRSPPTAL

Structure (SMILES)	IC50 [nM]	IC50 [1] [nM]	Activity-Ratio MKNK1
CCOc1cc2[nH]ncc2cc1Nc1ncnc2sc3c(c12)CC[C@@H](C(=O)N1CCC(=O)CC1)C3 [Example 69, 1-({(7R)-4-[(6-Ethoxy-1H-indazol-5-yl)amino]-5,6,7,8-tetrahydro[1]benzothieno[2,3-d]pyrimidin-7-yl}carbonyl)piperidin-4-one]	2.5		
CCOc1cc2[nH]ncc2cc1Nc1ncnc2sc3c(c12)CC[C@H](C(=O)N1C[C@@H]2C[C@H]1CO2)C3 [Example 70, {(7S)-4-[(6-Ethoxy-1H-indazol-5-yl)amino]-5,6,7,8-tetrahydro[1]benzothieno[2,3-d]pyrimidin-7-yl}[(1S,4S)-2-oxa-5-azabicyclo[2.2.1]hept-5-yl]methanone]		0.4	
CCOc1cc2[nH]ncc2cc1Nc1ncnc2sc3c(c12)CC[C@H](C(=O)N1C[C@H]2C[C@@H]1CO2)C3 [Example 71, {(7S)-4-[(6-Ethoxy-1H-indazol-5-yl)amino]-5,6,7,8-tetrahydro[1]benzothieno[2,3-d]pyrimidin-7-yl}[(1R,4R)-2-oxa-5-azabicyclo[2.2.1]hept-5-yl]methanone]		0.9	
CCOc1cc2[nH]ncc2cc1Nc1ncnc2sc3c(c12)CC[C@H](C(=O)N1CC2(COC2)C1)C3 [Example 72, {(7S)-4-[(6-Ethoxy-1H-indazol-5-yl)amino]-5,6,7,8-tetrahydro[1]benzothieno[2,3-d]pyrimidin-7-yl}(2-oxa-6-azaspiro[3.3]hept-6-yl)methanone]		0.7	
CCOc1cc2[nH]ncc2cc1Nc1ncnc2sc3c(c12)CC[C@H](C(=O)N(C)CCO)C3 [Example 73, (7S)-4-[(6-Ethoxy-1H-indazol-5-yl)amino]-N-(2-hydroxyethyl)-N-methyl-5,6,7,8-tetrahydro[1]benzothieno[2,3-d]pyrimidine-7-carboxamide]		0.3	
CCOc1cc2[nH]ncc2cc1Nc1ncnc2sc3c(c12)CC[C@H](C(=O)N(C)CC(C)(C)O)C3 [Example 74, (7S)-4-[(6-Ethoxy-1H-indazol-5-yl)amino]-N-(2-hydroxy-2-methylpropyl)-N-methyl-5,6,7,8-tetrahydro[1]benzothieno[2,3-d]pyrimidine-7-carboxamide]		0.2	
CCOc1cc2[nH]ncc2cc1Nc1ncnc2sc3c(c12)CC[C@H](C(=O)N1C[C@@H](O)[C@H](O)C1)C3 [Example 75, [(3R,4R)-3,4-Dihydroxypyrrolidin-1-yl]{(7S)-4-[(6-ethoxy-1H-indazol-5-yl)amino]-5,6,7,8-tetrahydro[1]benzothieno[2,3-d]pyrimidin-7-yl}methanone]		0.3	
CCOc1cc2[nH]ncc2cc1Nc1ncnc2sc3c(c12)CC[C@H](C(=O)N1C[C@H](O)[C@@H](O)C1)C3 [Example 76, [(3S,4S)-3,4-Dihydroxypyrrolidin-1-yl]{(7S)-4-[(6-ethoxy-1H-indazol-5-yl)amino]-5,6,7,8-tetrahydro[1]benzothieno[2,3-d]pyrimidin-7-yl}methanone]		0.4	
CCOc1cc2[nH]ncc2cc1Nc1ncnc2sc3c(c12)CC[C@H](C(=O)N(CCO)CCO)C3 [Example 77, (7S)-4-[(6-Ethoxy-1H-indazol-5-yl)amino]-N,N-bis(2-hydroxyethyl)-5,6,7,8-tetrahydro[1]benzothieno[2,3-d]pyrimidine-7-carboxamide]		0.1	
CC(C)Oc1cc2[nH]ncc2cc1Nc1ncnc2sc3c(c12)CC[C@H](C(=O)N(C)C)C3 [Example 78, (7S)—N,N-Dimethyl-4-{[6-(propan-2-yloxy)-1H-indazol-5-yl]amino}-5,6,7,8-tetrahydro[1]benzothieno[2,3-d]pyrimidine-7-carboxamide]		0.3	42.9
CC(C)Oc1cc2[nH]ncc2cc1Nc1ncnc2sc3c(c12)CC[C@@H](C(=O)N(C)C)C3 [Example 79, (7R)—N,N-Dimethyl-4-{[6-(propan-2-yloxy)-1H-indazol-5-yl]amino}-5,6,7,8-tetrahydro[1]benzothieno[2,3-d]pyrimidine-7-carboxamide]		12.1	
CCN(C(=O)[C@H]1CCc2c(sc3ncnc(Nc4cc5cn[nH]c5cc4OC(C)C)c23)C1)C(C)C [Example 80, (7S)—N-Ethyl-N-(propan-2-yl)-4-{[6-(propan-2-yloxy)-1H-indazol-5-yl]amino}-5,6,7,8-tetrahydro[1]benzothieno[2,3-d]pyrimidine-7-carboxamide]		0.3	
CC(C)Oc1cc2[nH]ncc2cc1Nc1ncnc2sc3c(c12)CC[C@H](C(=O)N(C)CC(F)F)C3 [Example 81, (7S)—N-(2,2-Difluoroethyl)-N-methyl-4-{[6-(propan-2-yloxy)-1H-indazol-5-yl]amino}-5,6,7,8-tetrahydro[1]benzothieno[2,3-d]pyrimidine-7-carboxamide]		0.3	27.5
CC(C)Oc1cc2[nH]ncc2cc1Nc1ncnc2sc3c(c12)CC[C@@H](C(=O)N(C)CC(F)F)C3 [Example 82, (7R)—N-(2,2-Difluoroethyl)-N-methyl-4-{[6-(propan-2-yloxy)-1H-indazol-5-yl]amino}-5,6,7,8-tetrahydro[1]benzothieno[2,3-d]pyrimidine-7-carboxamide]		8.1	
CC(C)Oc1cc2[nH]ncc2cc1Nc1ncnc2sc3c(c12)CC[C@H](C(=O)N1CCCC1)C3 [Example 83, [(7S)-4-{[6-(Propan-2-yloxy)-1H-indazol-5-yl]amino}-5,6,7,8-tetrahydro[1]benzothieno[2,3-d]pyrimidin-7-yl](pyrrolidin-1-yl)methanone]		0.3	
CC(C)Oc1cc2[nH]ncc2cc1Nc1ncnc2sc3c(c12)CC[C@H](C(=O)N1CCOC[C@@H]1C)C3 [Example 84, [(3S)-3-Methylmorpholin-4-yl][(7S)-4-{[6-(propan-2-yloxy)-1H-indazol-5-yl]amino}-5,6,7,8-tetrahydro[1]benzothieno[2,3-d]pyrimidin-7-yl]methanone]		0.7	
CC(C)Oc1cc2[nH]ncc2cc1Nc1ncnc2sc3c(c12)CC[C@H](C(=O)N1CCOC[C@H]1C)C3 [Example 85, [(3R)-3-Methylmorpholin-4-yl][(7S)-4-{[6-(propan-2-yloxy)-1H-indazol-5-yl]amino}-5,6,7,8-tetrahydro[1]benzothieno[2,3-d]pyrimidin-7-yl]methanone]		0.6	
CC(C)Oc1cc2[nH]ncc2cc1Nc1ncnc2sc3c(c12)CC[C@H](C(=O)N1C[C@@H]2C[C@H]1CO2)C3 [Example 86, (1S,4S)-2-Oxa-5-azabicyclo[2.2.1]hept-5-yl[(7S)-4-{[6-(propan-2-yloxy)-1H-indazol-5-yl]amino}-5,6,7,8-tetrahydro[1]benzothieno[2,3-d]pyrimidin-7-yl]methanone]		0.6	
CC(C)Oc1cc2[nH]ncc2cc1Nc1ncnc2sc3c(c12)CC[C@H](C(=O)N1C[C@H]2C[C@@H]1CO2)C3 [Example 87, (1R,4R)-2-Oxa-5-azabicyclo[2.2.1]hept-5-yl[(7S)-4-{[6-(propan-2-yloxy)-1H-indazol-5-yl]amino}-5,6,7,8-tetrahydro[1]benzothieno[2,3-d]pyrimidin-7-yl]methanone]		0.3	
CC(C)Oc1cc2[nH]ncc2cc1Nc1ncnc2sc3c(c12)CC[C@H](C(=O)N1CC2(COC2)C1)C3 [Example 88, 2-Oxa-6-azaspiro[3.3]hept-6-yl[(7S)-4-{[6-(propan-2-yloxy)-1H-indazol-5-yl]amino}-5,6,7,8-tetrahydro[1]benzothieno[2,3-d]pyrimidin-7-yl]methanone]		0.4	15.0
